Results on eight molecules are retold here after patent US4889854A, “Tricyclic pyridone derivatives” (Hoffman-La Roche Inc., priority 1987, dated 1989).

For data set [1], the system named is spasmodic seizures caused by pentetrazole. Put plainly: antipentetrazole test (oral administration, mice). In kind it is in vivo. The note with it: Mus musculus, 30 minutes before 120 mg/kg pentetrazole i.p., dosage which protects 50% of the animals, Probit method. The procedure:
As mentioned earlier, the compounds of formula A have valuable pharmacological properties. In particular, they display pronounced muscle relaxant, sedative-hypnotic, anticonvulsive and/or anxiolytic properties and have only a low toxicity.
(§1) In this animal experiment, the compound under investigation is administered orally to mice and 30 minutes later they are administered intraperitoneally 120 mg/kg of pentetrazole, which causes emprosthotonus and tonic stretchings of the fore and/or hind limbs in unprotected animals, 1-4 minutes after the injection. Ten (10) experimental animals are used per dosage of test substance. After counting the protected experimental animals, the ED50 is determined according to the known Probit method. The ED50 is that dosage which protects 50% of the experimental animals from the spasmodic seizures caused by pentetrazole. The results which have been obtained with representative members of the class of compound defined by formula A in the experiment described previously are compiled in the following Table. Moreover, the Table contains data concerning the acute toxicity (LD50) of some of these compounds in mg/kg in the case of single oral administration to mice.

Data set [2] is described as follows: acute toxicity, single oral administration to mice. The note with it: mouse, in vivo, single oral administration (p.o.). The procedure: as §1

SMILES strings stand for the structures. Some results are limits rather than exact numbers.

In data set [1], `O=C(c1cc(-c2ccccc2)c(=O)n2c1-c1cc(Cl)ccc1CN2)N1CCOCC1` [Compound A, 4-[(10-chloro-6,7-dihydro-4-oxo-3-phenyl-4H-pyrido[2,1-a]phthalazin-1-yl)carbonyl]morpholine] registered an ED50 of 3.1 mg/kg. Further, in data set [2], the LD50 was over 3000 mg/kg.
Consider `CO[C@@H]1CCN(C(=O)c2cc(-c3ccccc3)c(=O)n3c2-c2sccc2CN3)C1` [E, (R)-1-[(4,5-dihydro-7-oxo-8-phenyl-7H-pyrido[1,2-b]thieno[2,3-d]pyridazin-10-yl)carbonyl]-3-methoxypyrrolidine], for which the ED50 in data set [1] is 1.4 mg/kg.
`COC[C@H]1CCCN1C(=O)c1cc(-c2ccccc2)c(=O)n2c1-c1cc(Cl)ccc1CN2` [Compound B, (R)-1-[(10-chloro-6,7-dihydro-4-oxo-3-phenyl-4H-pyrido[2,1-a]phthalazin-1-yl)carbonyl]-2-(methoxymethyl)pyrrolidine] gave an ED50 in data set [1] of 0.44 mg/kg. This molecule also gave an LD50 in data set [2] of over 3000 mg/kg.
The like results for `COC1CN(C(=O)c2cc(-c3ccccc3)c(=O)n3c2-c2sccc2CN3C)C1` [G, 1-[(4,5-dihydro-5-methyl-7-oxo-8-phenyl-7H-pyrido[1,2-b]thieno[2,3-d]pyridazin-10-yl)carbonyl]-3-methoxyazetidine] were, in that order, 8.2 mg/kg and over 5000 mg/kg.
With `CN(C)C(=O)c1cc(-c2ccccc2)c(=O)n2c1-c1sccc1CN2` [H, 4,5-dihydro-N,N-dimethyl-7-oxo-8-phenyl-7H-pyrido[1,2-b]thieno[2,3-d]pyridazine-10-carboxamide], the 50% effect level in data set [1] (ED50) was put at a dose of 0.29 mg/kg. In addition, the LD50 in data set [2] is over 5000 mg/kg.
On to `COC1CN(C(=O)c2cc(-c3ccccc3)c(=O)n3c2-c2cc(Cl)ccc2CN3)C1` [C, 1-[(10-chloro-6,7-dihydro-4-oxo-3-phenyl-4H-pyrido[2,1-a]phthalazin-1-yl)carbonyl]-3-methoxyazetidine], for which, in data set [1], the ED50 was determined as 0.56 mg/kg.
`COC1CN(C(=O)c2cc(-c3ccccc3)c(=O)n3c2-c2sccc2C(C)N3)C1` (racemic) [F, rac-1-[(4,5-dihydro-4-methyl-7-oxo-8-phenyl-7H-pyrido[1,2-b]thieno[2,3-d]pyridazin-10-yl)carbonyl]-3-methoxyazetidine] returned an ED50 in data set [1] of 3.3 mg/kg. In data set [2], this molecule yielded an LD50 of 3000 mg/kg.
Turning to `CN(C)C(=O)c1cc(-c2ccccc2)c(=O)n2c1-c1cc(Cl)ccc1CN2` [D, 10-chloro-6,7-dihydro-N,N-dimethyl-4-oxo-3-phenyl-4H-pyrido[2,1-a]-phthalazine-1-carboxamide], the ED50 in data set [1] is 0.23 mg/kg.

Broadly, the ED50 is the midpoint of the dose-response relation. A higher ED50 goes with a need for a large dose. In general, LD50 refers to the dose at which mortality reaches 50%. Low readings indicate a more toxic substance, high ones a less toxic substance.
